# From patent publication US8299060B2, “Trans-4-[[(5S)-5-[[[3,5-bis(trifluoromethyl)phenyl]methyl] (2-methyl-2H-tetrazol-5-yl)amino]-2,3,4,5-tetrahydro-7,9-dimethyl-1H-1-benzazepin-1-yl]methyl]-cyclohexanecarboxylic acid” (Eli Lilly and Company, priority 2009, dated 2012)
# Marks after values point to notes of the source that are not given here.
# Assays:
# [1] = Chemical stability: acid stability in 0.1N HCl at 40° C.; assay type: physicochemical
# Method: Table 6 below lists the chemical stability of BCCA free acid as well as that of selected Examples 31, 89, 153, and 175 disclosed in WO 06/002342, renumbered below as compounds 13, 14, 15, and 16, respectively. […] This increased acid stability for BCCA free acid is not taught and cannot be predicted considering WO 06/002342.
# Sample preparations: 1) Compound Stock: 0.9 mg/mL in ACN; 2) 100 μL stock+700 μL ACN+1 mL media (0.1N HCl, 50 mM PO4, pH 8, and 0.3% H2O2); 3) Place vials in heated (40° C.) autosampler, inject at 4 hour intervals for 16 or 24 hours.
# Column: Alltech Alltima Phenyl, 3 μm, 4.6×150 mm or Waters XTerra MS C18, 3.5 μm, 4.6×150 mm Column temperature: 50° C., Injection volume: 10 μL. Detection: UV @ 226, 254 or 266 nm (depending on compound) Flow rate: 1.5 mL/min. Mobile phase: 0.1% TFA in 50% water/50% ACN (may need to adjust % ACN to keep compound peak retention time ˜5 min.) final sample conc. 0.05 mg/mL; ACN content 44%.
# [2] = Hygroscopicity and degradation on storage at ambient temperature; assay type: physicochemical; conditions: stored at ambient temperature
# HDL cholesterol = experiment: In vivo assay of plasma lipids (HDL cholesterol elevation); design: species or system transgenic mice that express human CETP; conditions: 30 mpk oral dose, 79.5% corn oil, 20% oleic acid, 0.5% Lubrafil, CETP and Apo A1 heterozygote mice
# Method: Syrian Golden Hamsters, which express endogenous CETP, can be used to assess the activity of the compounds in vivo. Test compounds are administered orally 30 mpk dose in a 79.5% corn oil, 20% oleic acid, 0.5% Lubrafil vehicle to a strain of transgenic mice that express human CETP (female or male CETP and Apo A1 heterozygote mice Taconic, Germantown, N.Y.). At various times after dosing, ranging from 4 h to 48 h, blood/plasma can be obtained. The CETP activity can be determined by a method similar to that described above for the in vitro CETP activity assay, with the modification that plasma from the treated animals is used as the CETP source in the assay.
# Activity of compounds of this invention in vivo can be evaluated by comparing the level of elevation of HDL cholesterol relative to a control by a given amount of a compound in a CETP-containing animal species. The test compounds are administered as described above for the in vivo assay of CETP activity. […] The HDL cholesterol levels in the serum can be determined by known procedures using HDL-C plus reagents (Roche/Hitachi, Indianapolis, Ind.) with a clinical chemistry analyzer (Roche/Hitachi, Indianapolis, Ind.). Additional serum lipids can be analyzed by enzymatic methods. Lipids in the VLDL, LDL and HDL fractions are analyzed by enzymatic methods after precipitation or size exclusion chromatography. […]
# human CETP = biological target: T1, human CETP (Homo sapiens, UniProt P11597); experiment: In vivo assay of CETP activity; design: species or system transgenic mice that express human CETP; conditions: 30 mpk oral dose, 79.5% corn oil, 20% oleic acid, 0.5% Lubrafil; CETP and Apo A1 heterozygote mice; 8 hr; read-out: % CETP Inhib 8 hr
# T1 construct: plasma from the treated animals is used as the CETP source in the assay; tissue Taconic; host or cells: plasma of transgenic mice expressing human CETP (CETP and Apo A1 heterozygotes)
# T1 sequence (P11597 18-493): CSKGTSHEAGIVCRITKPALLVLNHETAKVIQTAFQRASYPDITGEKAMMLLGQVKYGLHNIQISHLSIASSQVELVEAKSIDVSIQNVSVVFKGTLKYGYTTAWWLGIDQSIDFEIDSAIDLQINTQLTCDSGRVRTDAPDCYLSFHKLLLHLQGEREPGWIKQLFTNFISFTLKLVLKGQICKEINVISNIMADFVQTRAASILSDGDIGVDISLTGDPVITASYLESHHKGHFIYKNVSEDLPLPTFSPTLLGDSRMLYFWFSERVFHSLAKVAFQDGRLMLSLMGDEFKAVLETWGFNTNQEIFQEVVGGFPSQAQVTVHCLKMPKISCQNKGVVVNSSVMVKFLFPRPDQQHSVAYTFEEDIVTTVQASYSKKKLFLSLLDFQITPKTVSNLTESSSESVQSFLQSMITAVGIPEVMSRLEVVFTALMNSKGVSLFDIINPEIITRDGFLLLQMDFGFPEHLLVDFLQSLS
# Excerpt: An in vitro Scintillation Proximity Assay (SPA) has been used to evaluate the ability of compounds of this invention to inhibit the transfer of radiolabeled cholesterol esters between HDL and LDL. This assay monitors the inhibition of the transfer of [^3H]cholesterol esters from HDL (Amersham) to biotinylated LDL (Amersham) by a CETP source. The CETP source for this assay can be produced by AV-12 cells that have been created to express human CETP. The radiolabeled cholesterol ester is transferred in a HEPES-NaCl based buffer, after thirty minutes incubation the reaction is stopped and the biotinylated LDL is bound to streptavidin/scintillant coated SPA beads (Amersham). The radioactive signal is measured in a Packard 96-well scintillation TopCounter with window settings fully open. A decrease in radioactive signal from the LDL relative to a standard indicates the ability of compounds to inhibit the activity of CETP.
# Syrian Golden Hamsters, which express endogenous CETP, can be used to assess the activity of the compounds in vivo. […] The CETP activity can be determined by a method similar to that described above for the in vitro CETP activity assay, with the modification that plasma from the treated animals is used as the CETP source in the assay.
# [3] = IV and PO pharmacokinetics in male Sprague Dawley rats; assay type: in vivo; conditions: 3 mg/kg PO; for F % (AUC Extrap.) ± sd: 1 mg/kg IV; for Cmax / Tmax: rat, plasma
# Method: This following is to determine the pharmacokinetic parameters, including oral bioavailability, following a single 1 mg/kg intravenous bolus or a 3 mg/kg oral dose administration of the compound to male Sprague Dawley rats (n=4) in a crossover study design. The intravenous vehicle is 20% solutol microemulsion/80% deionized water. The oral vehicle is povidone USP 10%/SLS 0.5%/QS deionized water. In the intravenous arm, blood samples are collected at 0.08, 0.25, 0.5, 1, 2, 5, 8, 12, and 24 hours post-dose. In the oral arm, blood samples are collected at 0, 0.25, 0.5, 1, 2, 5, 8, 12, and 24 hours post-dose. Plasma is obtained by centrifugation, placed on ice, and frozen until samples are shipped on dry ice to Bioanalytical Systems, Inc. (BASi; West Lafayette, Ind.) for bioanalytical analysis. Concentrations of BCCA are determined by LC/MS/MS and pharmacokinetic parameters are calculated using a validated software program (Watson, Version 7.1). Other vehicles can be used to evaluate the bioavailability of BCCA including: 1% w/v sodium carboxymethyl cellulose, 0.25% w/v polysorbate 80 (Tween 80) and 0.05% 0.05% Dow Corning Antifoam 1510-US in purified water or; 1% w/v sodium carboxymethyl cellulose, 0.5% w/v sodium laurate sulfate, and 0.05% 0.05% Dow Corning Antifoam 1510-US in purified water in purified water each used either with or without sonification to facilitate dissolution of the compounds.
SMILES,"Acid Stability, percent remaining, 8 hrs [1]","Acid Stability, percent remaining, 24 hrs [1]",hygroscopicity [2],further results
"Cc1cc(C)c2c(c1)[C@@H](N(Cc1cc(C(F)(F)F)cc(C(F)(F)F)c1)c1nnn(C)n1)CCCN2C[C@H]1CC[C@H](C(=O)O)CC1.O (relative stereo) [Example 3, Trans-4-[[(5S)-5-[[[3,5-bis(trifluoromethyl)phenyl]methyl](2-methyl-2H-tetrazol-5-yl)amino]-2,3,4,5-tetrahydro-7,9-dimethyl-1H-1-benzazepin-1-yl]methyl]-cyclohexanecarboxylic acid•Hydrate]",,,,degradation on storage [2]: minor or very little degradation
[O-][n+]1ccccc1[S-].[O-][n+]1ccccc1[S-].[Zn+2] [zinc salt],,,essentially non-hygroscopic,
"Cc1cc(C)c2c(c1)[C@@H](N(Cc1cc(C(F)(F)F)cc(C(F)(F)F)c1)c1nnn(C)n1)CCCN2C[C@H]1CC[C@H](C(=O)O)CC1.O (relative stereo) [Example 5, Trans-4-[[(5S)-5-[[[3,5-bis(trifluoromethyl)phenyl]methyl](2-methyl-2H-tetrazol-5-yl)amino]-2,3,4,5-tetrahydro-7,9-dimethyl-1H-1-benzazepin-1-yl]methyl]-cyclohexanecarboxylic acid hydrate in crystalline form]",,,non-hygroscopic,
"CC(C)(C)N.CCO.Cc1cc(C)c2c(c1)[C@@H](N(Cc1cc(C(F)(F)F)cc(C(F)(F)F)c1)c1nnn(C)n1)CCCN2C[C@H]1CC[C@H](C(=O)O)CC1.Cc1cc(C)c2c(c1)[C@@H](N(Cc1cc(C(F)(F)F)cc(C(F)(F)F)c1)c1nnn(C)n1)CCCN2C[C@H]1CC[C@H](C(=O)O)CC1 (relative stereo) [Example 15, Trans-4-[[(5S)-5-[[[3,5-bis(trifluoromethyl)phenyl]methyl](2-methyl-2H-tetrazol-5-yl)amino]-2,3,4,5-tetrahydro-7,9-dimethyl-1H-1-benzazepin-1-yl]methyl]-cyclohexanecarboxylic acid hemi tert-butylamine salt hemi ethanol (2:1:1) solvate in crystalline form]",,,non-hygroscopic,
"Cc1cc(C)c2c(c1)[C@@H](N(Cc1cc(C(F)(F)F)cc(C(F)(F)F)c1)c1nnn(C)n1)CCCN2C[C@H]1CC[C@H](C(=O)O)CC1 [Ex 1, Trans-4-[[(5S)-5-[[[3,5-bis(trifluoromethyl)phenyl]methyl](2-methyl-2H-tetrazol-5-yl)amino]-2,3,4,5-tetrahydro-7,9-dimethyl-1H-1-benzazepin-1-yl]methyl]-cyclohexanecarboxylic acid]",97.3%,91.3%,non-hygroscopic,% HDL cholesterol increase at 8 hr (HDL cholesterol): 129.7. %; inhibition at 30 mg/kg (human CETP): 98.6%; F % (AUC Extrap.) ± sd [3]: 38 ± 4%; Cmax [3]: 0.208 ± 0.041 µg/mL; Tmax [3]: 3.5 ± 1.7 h
"Cc1cc2c(c(C)c1C(F)(F)F)N(CC1CCC(CC(=O)O)CC1)CCC[C@@H]2N(Cc1cc(C(F)(F)F)cc(C(F)(F)F)c1)c1nnn(C)n1 (stereo partly drawn) [Compound 15, reference compound]",100.4%,99.1%,,F % (AUC Extrap.) ± sd [3]: 8 ± 3%; Cmax [3]: 0.085 ± 0.043 µg/mL; Tmax [3]: 5 h
"CC(C)(C)N.CC(C)O.Cc1cc(C)c2c(c1)[C@@H](N(Cc1cc(C(F)(F)F)cc(C(F)(F)F)c1)c1nnn(C)n1)CCCN2C[C@H]1CC[C@H](C(=O)O)CC1 (relative stereo) [Example 14, Trans-4-[[(5S)-5-[[[3,5-bis(trifluoromethyl)phenyl]methyl](2-methyl-2H-tetrazol-5-yl)amino]-2,3,4,5-tetrahydro-7,9-dimethyl-1H-1-benzazepin-1-yl]methyl]-cyclohexanecarboxylic acid tert-butylamine isopropyl alcohol (1:1:1) solvate]",,,non-hygroscopic,

# More lines, main results first:
"Acid Stability, percent remaining, 8 hrs [1]","Acid Stability, percent remaining, 24 hrs [1]",hygroscopicity [2],SMILES,further results
14.5%,0%,,"Cc1cc2c(cc1C(F)(F)F)N(C[C@H]1CC[C@H](CC(=O)O)CC1)CCC[C@@H]2N(Cc1cc(C(F)(F)F)cc(C(F)(F)F)c1)c1nnn(C)n1 [Compound 13, (4-{5-[(3,5-Bis-trifluoromethyl-benzyl)-(2-methyl-2H-tetrazol-5-yl)-amino]-7-methyl-8-trifluoromethyl-2,3,4,5-tetrahydro-benzo[b]azepin-1-ylmethyl}-cyclohexyl)-acetic acid]",
52%,13.4%,,"Cc1cc2c(cc1C(F)(F)F)N(Cc1ccc(C(=O)O)cc1)CCC[C@@H]2N(Cc1cc(C(F)(F)F)cc(C(F)(F)F)c1)c1nnn(C)n1 [Compound 14, (S)-4-{5-[(3,5-Bis-trifluoromethyl-benzyl)-(2-methyl-2H-tetrazol-5-yl)-amino]-7-methyl-8-trifluoromethyl-2,3,4,5-tetrahydro-benzo[b]azepin-1-ylmethyl}-benzoic acid]",
37.8%,,,Cc1cc2c(cc1C(F)(F)F)N(C1CCC(C(=O)O)CC1)CCC[C@@H]2N(Cc1cc(C(F)(F)F)cc(C(F)(F)F)c1)c1nnn(C)n1 (stereo partly drawn) [Compound 16],"Acid Stability, percent remaining after 16 hrs ([1]; 16 hrs (footnote *)): 13.4* Percent"
